Assay results as given in the supplement of paper PMC13380429.

Legend:
Conditions in all cases: 72 h
HepG2 [1] = assay: cell viability relative to DMSO; higher = less toxic
U2OS [2] = assay: as above
Vero E6 [3] = assay: as above
HepG2 [4] = assay: relative viability EC50 (midpoint between 100% and the lowest measured viability); higher = less toxic
U2OS [5] = assay: as above
Vero E6 [6] = assay: as above
HepG2 [7] = assay: drug sensitivity score (DSS) for viability; higher = more toxic; extreme values may be limits of the assay
U2OS [8] = assay: as above
Vero E6 [9] = assay: as above
Calu-3 [10] = assay: as above
Caco-2 [11] = assay: cell viability relative to DMSO; higher = less toxic
Calu-3 [12] = assay: as above
Caco-2 [13] = assay: relative viability EC50 (midpoint between 100% and the lowest measured viability); higher = less toxic
Calu-3 [14] = assay: as above
Caco-2 [15] = assay: drug sensitivity score (DSS) for viability; higher = more toxic; extreme values may be limits of the assay

SMILES	cell viability (HepG2 [1]; 1 nM) [%]	cell viability (HepG2 [1]; 10 nM) [%]	cell viability (HepG2 [1]; 100 nM) [%]	cell viability (HepG2 [1]; 1000 nM) [%]	cell viability (HepG2 [1]; 10000 nM) [%]	cell viability (U2OS [2]; 1 nM) [%]	cell viability (U2OS [2]; 10 nM) [%]	cell viability (U2OS [2]; 100 nM) [%]	cell viability (U2OS [2]; 1000 nM) [%]	cell viability (U2OS [2]; 10000 nM) [%]	cell viability (Vero E6 [3]; 1 nM) [%]	cell viability (Vero E6 [3]; 10 nM) [%]	cell viability (Vero E6 [3]; 100 nM) [%]	cell viability (Vero E6 [3]; 1000 nM) [%]	cell viability (Vero E6 [3]; 10000 nM) [%]	relative viability EC50 (HepG2 [4]) [µM]	relative viability EC50 (U2OS [5]) [µM]	relative viability EC50 (Vero E6 [6]) [µM]	drug sensitivity score (HepG2 [7])	drug sensitivity score (U2OS [8])	drug sensitivity score (Vero E6 [9])	drug sensitivity score (Calu-3 [10])	cell viability (Caco-2 [11]; 1 nM) [%]	cell viability (Caco-2 [11]; 10 nM) [%]	cell viability (Caco-2 [11]; 100 nM) [%]	cell viability (Caco-2 [11]; 1000 nM) [%]	cell viability (Caco-2 [11]; 10000 nM) [%]	cell viability (Calu-3 [12]; 1 nM) [%]	cell viability (Calu-3 [12]; 10 nM) [%]	cell viability (Calu-3 [12]; 100 nM) [%]	cell viability (Calu-3 [12]; 1000 nM) [%]	cell viability (Calu-3 [12]; 10000 nM) [%]	relative viability EC50 (Caco-2 [13]) [µM]	relative viability EC50 (Calu-3 [14]) [µM]	drug sensitivity score (Caco-2 [15])
CC(C)[C@@H](C)/C=C/[C@@H](C)[C@H]1CC[C@H]2C3=CC=C4C[C@@H](O)CC[C@]4(C)[C@H]3CC[C@]12C [ergosterol]	92	102	96.5	104	95	103	96.7	97.8	94.7	102	95.7	103	94.7	102	95.5	> 10	> 10	> 10	0	0	0														
O=C(O)CN(CCN(CC(=O)O)CC(=O)O)CC(=O)O [ethylenediaminetetraacetic-acid]																			0	0	0	0													
CCCCc1nc(C)c(CC(=S)N(C)C)c(=O)n1Cc1ccc(-c2ccccc2-c2nnn[nH]2)cc1 [fimasartan]						107	96.6	102	101	104	98	95.8	93	101	106		> 10	> 10		0	0	0	94.2	89.4	90.8	96.9	113	94.9	99.5	128	94.4	115	> 10	> 10	0
OC[C@H]1O[C@@H](Oc2cc3c(O)cc(O)cc3[o+]c2-c2ccc(O)c(O)c2)[C@H](O)[C@@H](O)[C@@H]1O [kuromanin]						96.6	99.8	96.6	99.5	93.6	103	102	103	98	94.4		> 10	> 10		0	0	0	98.3	95.4	86.5	100	96.7	98.7	111	89.7	102	98.8	> 10	> 10	0
COc1ccccc1OCC(O)COC(N)=O (configuration not stated) [methocarbamol]																							102	98.4	98.3	103	100						> 10		0
CC(C)[C@H]1CC[C@H](C(=O)N[C@H](Cc2ccccc2)C(=O)O)CC1 [nateglinide]											99.7	97	92.9	93.8	94.1			> 10			0		92.7	95.6	105	106	96.7						> 10		0
